Each structure is given as a SMILES string.

Common to all, as to assay type: biochemical
One assay deals with T1, JAK1 (Homo sapiens, UniProt P23458).
T1 construct: made in house; host or cells: SF9 insect cells (baculovirus)
The assay is described as follows: JAK1 inhibition (Table 4). Conditions: read-out: JAK1 Ki.

A further assay addresses T2, JAK2 (Homo sapiens, UniProt O60674).
T2 construct: made in house; host or cells: SF9 insect cells (baculovirus)
The assay is described as follows: JAK2 inhibition (Table 4). Conditions: read-out: JAK2 Ki.

The target of the next assay is T3, JAK3 (Homo sapiens, UniProt P52333).
T3 construct: made in house; host or cells: SF9 insect cells (baculovirus)
T3 sequence (P52333 783-1124): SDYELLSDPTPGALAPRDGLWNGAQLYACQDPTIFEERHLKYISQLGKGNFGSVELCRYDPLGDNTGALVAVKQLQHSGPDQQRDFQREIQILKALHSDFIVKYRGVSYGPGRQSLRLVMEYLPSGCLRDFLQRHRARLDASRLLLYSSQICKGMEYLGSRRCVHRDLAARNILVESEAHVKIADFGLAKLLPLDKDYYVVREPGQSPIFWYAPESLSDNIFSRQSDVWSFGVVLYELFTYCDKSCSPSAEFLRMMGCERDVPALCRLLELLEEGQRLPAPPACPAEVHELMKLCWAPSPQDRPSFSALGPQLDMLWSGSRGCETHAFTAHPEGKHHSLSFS
The assay is described as follows: JAK3 inhibition (Table 4). Conditions: read-out: JAK3 Ki.

For the next assay, the target named is T4, TYK2 (Homo sapiens, UniProt P29597).
T4 construct: made in house; host or cells: SF9 insect cells (baculovirus)
T4 sequence (P29597 873-1187): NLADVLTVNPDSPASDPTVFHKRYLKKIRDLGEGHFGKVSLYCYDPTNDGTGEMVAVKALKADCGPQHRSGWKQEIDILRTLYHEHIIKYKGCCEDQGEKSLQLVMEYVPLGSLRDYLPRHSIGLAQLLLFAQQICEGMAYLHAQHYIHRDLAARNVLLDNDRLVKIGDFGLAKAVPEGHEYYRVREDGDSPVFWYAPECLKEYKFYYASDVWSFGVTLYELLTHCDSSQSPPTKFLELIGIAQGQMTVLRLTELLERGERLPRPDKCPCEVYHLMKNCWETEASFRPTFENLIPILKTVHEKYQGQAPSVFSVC
The experiment in a line: TYK2 inhibition (Table 4).

T2 sequence (O60674 812-1132): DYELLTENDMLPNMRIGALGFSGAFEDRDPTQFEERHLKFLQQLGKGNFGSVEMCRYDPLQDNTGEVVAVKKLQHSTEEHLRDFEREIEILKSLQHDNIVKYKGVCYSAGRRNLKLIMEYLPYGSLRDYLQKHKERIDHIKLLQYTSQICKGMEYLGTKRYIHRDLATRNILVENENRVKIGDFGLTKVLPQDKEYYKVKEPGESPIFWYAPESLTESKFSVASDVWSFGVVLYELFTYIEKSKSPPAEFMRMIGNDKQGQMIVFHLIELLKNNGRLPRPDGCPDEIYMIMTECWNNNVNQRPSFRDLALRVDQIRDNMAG
T1 sequence (P23458 852-1154): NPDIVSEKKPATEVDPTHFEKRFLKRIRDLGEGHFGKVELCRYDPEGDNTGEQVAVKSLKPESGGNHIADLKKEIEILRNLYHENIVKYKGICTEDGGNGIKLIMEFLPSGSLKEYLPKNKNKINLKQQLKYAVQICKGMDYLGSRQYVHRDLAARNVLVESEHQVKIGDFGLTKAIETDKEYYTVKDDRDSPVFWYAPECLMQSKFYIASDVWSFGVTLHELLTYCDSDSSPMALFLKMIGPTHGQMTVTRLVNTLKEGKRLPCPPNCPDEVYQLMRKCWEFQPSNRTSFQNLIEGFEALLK

As to `O=C(Cc1nc2cnc3[nH]ccc3c2n1C1CCNCC1)N1CCS(=O)(=O)CC1` [Example 262, 1-(1,1-Dioxo-1lambda*6*-thiomorpholin-4-yl)-2-(1-piperidin-4-yl-1,6-dihydro-1,3,5,6-tetraaza-as-indacen-2-yl)-ethanone], the Ki – broadly, a measure of affinity in units of concentration, obtained from inhibition or displacement – amounted to 21.2 nM at JAK1, 663 nM at JAK2, 96.5 nM on JAK3 and 165 nM on TYK2.
For `COC[C@H]1CC[C@H](n2c(CO)nc3cnc4[nH]ccc4c32)CC1` [Example 636, Trans[1-(4-methoxymethyl-cyclohexyl)-1,6-dihydro-1,2,3,5,6-tetraaza-as-indacen-2-yl]-methanol], in that order: 3.82 nM, 15.6 nM, 28 nM and 6.5 nM.
For `COCCNC1CCC(n2cnc3cnc4[nH]ccc4c32)C1` (racemic) [Example 726, (2-Methoxy-ethyl)-[3-(6H-1,3,5,6-tetraaza-as-indacen-1-yl)-cyclopentyl]-amine], in that order: 176 nM, 785 nM, 754 nM and 2220 nM.
For `O[C@@H](c1nc2cnc3[nH]ccc3c2n1C1CCCCC1)C(F)(F)F` [Example 878, (S)-1-(1-Cyclohexyl-1,6-dihydro-1,3,5,6-tetraaza-as-indacen-2-yl)-2,2,2-trifluoro-ethanol], in that order: 1.8 nM, 43.7 nM, 13.6 nM and 11.8 nM.
Consider `c1cnc(CN2CCC(n3cnc4cnc5[nH]ccc5c43)CC2)cn1` [Example 92, 1-(1-Pyrazin-2-ylmethyl-piperidin-4-yl)-1,6-dihydro-1,3,5,6-tetraaza-as-indacene], for which the Ki was found to be 3.64 nM at JAK1, 6.15 nM at JAK2, 25.6 nM on JAK3 and 109 nM on TYK2.
For `Cc1nc2cnc3[nH]ccc3c2n1C1CCc2cn[nH]c2C1` (racemic) [Example 488], in that order: 31.9 nM, 37.1 nM, 87 nM and 188 nM.
For `Cc1nc2cnc3[nH]ccc3c2n1C1CCC(NC(=O)N2CC(F)(F)C2)CC1` (stereo not shown) [Example 748, 3,3-difluoro-azetidine-1-carboxylic acid [4-(2-methyl-6H-1,3,5,6-tetraaza-as-indacen-1-yl)-cyclohexyl]-amide], in that order: 10.7 nM, 36.6 nM, 150 nM and 444 nM.
For `CC(C)(C)OC(=O)N1CCC[C@H]1C(=O)N1CCC(n2cnc3cnc4[nH]ccc4c32)CC1` [Example 144, (S)-2-[4-(6H-1,2,3,5,6-Tetraaza-as-indacen-1-yl)-piperidine-1-carbonyl]-pyrrolidine-1-carboxylic acid tert-butyl ester], in that order: 251 nM, 382 nM, 3520 nM and 3160 nM.
Turning to `CN(Cc1nc2cnc3[nH]ccc3c2n1C1CCN(Cc2ccccc2)CC1)S(C)(=O)=O` [Example 203, N-[1-(1-Benzyl-piperidin-4-yl)-1,6-dihydro-1,2,3,5,6-tetraaza-as-indacen-2-ylmethyl]-N-methyl-methanesulfonamide], the Ki at JAK1 amounted to 19.6 nM; at JAK2 it was 145 nM; at JAK3, 104 nM; on TYK2 it was 258 nM.
For `O=C(Cc1nc2cnc3[nH]ccc3c2n1C1CCCOC1)N1CC(F)(F)C1` (racemic) [Example 971, 1-(3,3-Difluoro-azetidin-1-yl)-2-[1-(tetrahydro-pyran-3-yl)-1,6-dihydro-1,3,5,6-tetraaza-as-indacen-2-yl]-ethanone], in that order: 114 nM, 564 nM, 352 nM and 799 nM.
`C[C@@H](O)c1nc2cnc3[nH]ccc3c2n1C1CCN(Cc2ccn(C)n2)CC1` [Example 825, (R)-1-{1-[1-(1-Methyl-1H-pyrazol-3-ylmethyl)-piperidin-4-yl]-1,6-dihydro-1,3,5,6-tetraaza-as-indacen-2-yl}-ethanol]: the Ki on JAK1 was 26 nM; on JAK2 it was 350 nM; at JAK3, 143 nM; at TYK2 it was 1960 nM.
For `O=S(=O)(Cc1ccccc1)N1CC[C@@H](n2cnc3cnc4[nH]ccc4c32)C1` [Example 435, 1-((R)-1-Phenylmethanesulfonyl-pyrrolidin-3-yl)-1,6-dihydro-1,3,5,6-tetraaza-as-indacene], in that order: 32.1 nM, 28.1 nM, 226 nM and 265 nM.
For `N#CCCNC1CCC(n2cnc3cnc4[nH]ccc4c32)C1` (racemic) [Example 300, 3-[3-(6H-1,3,5,6-Tetraaza-as-indacen-1-yl)-cyclopentylamino]-propionitrile], in that order: 7.81 nM, 18.3 nM, 28.8 nM and 65.9 nM.
For `Cc1nc2cnc3[nH]ccc3c2n1[C@H]1CC[C@H](NCC(F)(F)F)CC1` [Example 591, Trans[4-(2-methyl-6H-1,2,3,5,6-tetraaza-as-indacen-1-yl)-cyclohexyl]-(2,2,2-trifluoro-ethyl)-amine], in that order: 0.64 nM, 1.87 nM, 13 nM and 2.51 nM.
Regarding `O=C1CCC(n2cnc3cnc4[nH]ccc4c32)CN1` (racemic) [Example 130, 5-(6H-1,2,3,5,6-Tetraaza-as-indacen-1-yl)-piperidin-2-one], the Ki on JAK1 worked out at 126 nM; at JAK2 it was 389 nM; at JAK3 it was 2280 nM; on TYK2 it was 622 nM.
Turning to `C[C@@H](O)c1nc2cnc3[nH]ccc3c2n1[C@@H]1COCCC1(F)F` [Example 1012, (R)-1-[1-((R)-4,4-Difluoro-tetrahydro-pyran-3-yl)-1,6-dihydro-1,3,5,6-tetraaza-as-indacen-2-yl]-ethanol], the Ki on JAK1 came to 9.43 nM; at JAK2, 103 nM; at JAK3, 75.1 nM; on TYK2 it was 45.2 nM.
For the compound `Cc1nc2cnc3[nH]ccc3c2n1C1CCN(CC(C)O)CC1` (stereo not shown) [Example 701, 1-[4-(2-Methyl-6H-1,2,3,5,6-tetraaza-as-indacen-1-yl)-piperidin-1-yl]-propan-2-ol], the Ki on JAK1 stood at 15.9 nM; at JAK2, 60.6 nM; on JAK3, 234 nM; on TYK2 it was 202 nM.
For `C[C@@H](O)c1nc2cnc3[nH]ccc3c2n1[C@@H]1CCCO1` [Example 659, (R)-1-[(S)-1-(Tetrahydro-furan-2-yl)-1,6-dihydro-1,2,3,5,6-tetraaza-as-indacen-2-yl]-ethanol], in that order: 30.8 nM, 395 nM, 172 nM and 308 nM.
For `CS(=O)(=O)N1CC[C@@H](n2cnc3cnc4[nH]ccc4c32)C1` [Example 190, 1-((R)-1-Methanesulfonyl-pyrrolidin-3-yl)-1,6-dihydro-1,2,3,5,6-tetraaza-as-indacene], in that order: 62.7 nM, 67.4 nM, 59.2 nM and 114 nM.

These data come from patent US8461328B2, “Tricyclic heterocyclic compounds, compositions and methods of use thereof” (Genentech, Inc., priority 2010, dated 2013).
